According to ChEMBL document CHEMBL5291721, “A preclinical secondary pharmacology resource illuminates target-adverse drug reaction associations of marketed drugs” (Nat Commun, 2023):

How the values were obtained:
[1] = biological target: Muscarinic acetylcholine receptor M3 (Homo sapiens, UniProt P20309)
Vasopressin V2 receptor = Vasopressin V2 receptor (Homo sapiens, UniProt P30518)
Histamine H3 receptor = Histamine H3 receptor (Homo sapiens, UniProt Q9Y5N1)
Adenosine receptor A2a = Adenosine receptor A2a (Homo sapiens, UniProt P29274)
Sequence of Adenosine receptor A2a (P29274 whole entry): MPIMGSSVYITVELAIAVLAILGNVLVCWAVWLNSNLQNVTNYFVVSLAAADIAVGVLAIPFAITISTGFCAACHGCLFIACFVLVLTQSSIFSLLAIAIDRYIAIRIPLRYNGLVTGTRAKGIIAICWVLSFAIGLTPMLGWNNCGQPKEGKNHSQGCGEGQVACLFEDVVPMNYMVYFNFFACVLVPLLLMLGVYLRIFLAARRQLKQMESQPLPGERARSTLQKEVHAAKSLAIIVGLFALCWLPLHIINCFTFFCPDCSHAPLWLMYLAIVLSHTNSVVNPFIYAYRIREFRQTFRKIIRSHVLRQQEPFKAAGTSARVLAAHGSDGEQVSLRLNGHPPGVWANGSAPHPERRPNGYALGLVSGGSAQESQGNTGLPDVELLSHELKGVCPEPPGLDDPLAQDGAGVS

D(1A) dopamine receptor = D(1A) dopamine receptor (Homo sapiens, UniProt P21728); assay type: functional, cell-based
Sequence of D(1A) dopamine receptor (P21728 whole entry): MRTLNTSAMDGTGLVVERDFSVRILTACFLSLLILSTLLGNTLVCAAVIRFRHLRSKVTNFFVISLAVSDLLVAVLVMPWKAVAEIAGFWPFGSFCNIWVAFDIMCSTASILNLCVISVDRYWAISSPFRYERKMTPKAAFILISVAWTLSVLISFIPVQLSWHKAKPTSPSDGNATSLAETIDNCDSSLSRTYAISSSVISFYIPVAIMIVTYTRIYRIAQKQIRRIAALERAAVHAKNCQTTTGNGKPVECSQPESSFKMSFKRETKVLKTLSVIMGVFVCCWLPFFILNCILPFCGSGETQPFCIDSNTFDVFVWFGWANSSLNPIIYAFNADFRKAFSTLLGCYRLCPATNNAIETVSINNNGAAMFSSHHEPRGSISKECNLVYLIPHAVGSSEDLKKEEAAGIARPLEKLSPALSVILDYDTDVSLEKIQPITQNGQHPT

Adenosine receptor A3 = biological target: T1, Adenosine receptor A3 (Homo sapiens, UniProt P0DMS8)
T1 sequence (P0DMS8 whole entry): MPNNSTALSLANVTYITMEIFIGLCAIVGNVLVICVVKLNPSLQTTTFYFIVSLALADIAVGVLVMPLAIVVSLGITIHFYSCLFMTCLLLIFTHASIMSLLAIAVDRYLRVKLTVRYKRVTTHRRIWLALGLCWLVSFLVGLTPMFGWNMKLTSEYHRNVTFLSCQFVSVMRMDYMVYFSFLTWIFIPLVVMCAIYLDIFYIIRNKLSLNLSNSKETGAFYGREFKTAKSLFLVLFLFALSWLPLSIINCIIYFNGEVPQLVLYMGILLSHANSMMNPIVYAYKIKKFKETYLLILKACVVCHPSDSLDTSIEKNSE

Melanocortin receptor 4 = Melanocortin receptor 4 (Homo sapiens, UniProt P32245)
Sequence of Melanocortin receptor 4 (P32245 whole entry): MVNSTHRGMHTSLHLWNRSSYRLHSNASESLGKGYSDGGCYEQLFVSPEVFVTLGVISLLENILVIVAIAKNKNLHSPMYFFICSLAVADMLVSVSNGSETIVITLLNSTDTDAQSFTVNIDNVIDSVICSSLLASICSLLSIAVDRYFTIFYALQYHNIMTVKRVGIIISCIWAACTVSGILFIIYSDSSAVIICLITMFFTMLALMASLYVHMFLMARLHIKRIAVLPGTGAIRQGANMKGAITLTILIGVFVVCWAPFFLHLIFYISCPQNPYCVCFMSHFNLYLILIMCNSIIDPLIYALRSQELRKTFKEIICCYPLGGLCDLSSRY

[2] = biological target: 5-hydroxytryptamine receptor 2A (Homo sapiens, UniProt P28223); assay type: functional, cell-based
Sequence of 5-hydroxytryptamine receptor 2A (P28223 whole entry): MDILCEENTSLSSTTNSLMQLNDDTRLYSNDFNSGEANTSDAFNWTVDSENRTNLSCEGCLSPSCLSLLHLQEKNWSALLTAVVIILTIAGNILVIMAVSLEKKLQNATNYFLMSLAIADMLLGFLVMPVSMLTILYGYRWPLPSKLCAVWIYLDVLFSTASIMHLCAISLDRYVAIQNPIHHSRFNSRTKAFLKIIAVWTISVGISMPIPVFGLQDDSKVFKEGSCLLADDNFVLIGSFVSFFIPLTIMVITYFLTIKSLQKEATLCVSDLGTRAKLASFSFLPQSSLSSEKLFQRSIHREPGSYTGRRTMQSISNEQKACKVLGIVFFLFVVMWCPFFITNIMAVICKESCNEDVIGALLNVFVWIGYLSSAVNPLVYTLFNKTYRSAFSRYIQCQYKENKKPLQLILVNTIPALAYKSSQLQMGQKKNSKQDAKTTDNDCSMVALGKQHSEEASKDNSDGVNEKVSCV

Progesterone receptor = biological target: T2, Progesterone receptor (Homo sapiens, UniProt P06401); assay type: functional
T2 sequence (P06401 whole entry): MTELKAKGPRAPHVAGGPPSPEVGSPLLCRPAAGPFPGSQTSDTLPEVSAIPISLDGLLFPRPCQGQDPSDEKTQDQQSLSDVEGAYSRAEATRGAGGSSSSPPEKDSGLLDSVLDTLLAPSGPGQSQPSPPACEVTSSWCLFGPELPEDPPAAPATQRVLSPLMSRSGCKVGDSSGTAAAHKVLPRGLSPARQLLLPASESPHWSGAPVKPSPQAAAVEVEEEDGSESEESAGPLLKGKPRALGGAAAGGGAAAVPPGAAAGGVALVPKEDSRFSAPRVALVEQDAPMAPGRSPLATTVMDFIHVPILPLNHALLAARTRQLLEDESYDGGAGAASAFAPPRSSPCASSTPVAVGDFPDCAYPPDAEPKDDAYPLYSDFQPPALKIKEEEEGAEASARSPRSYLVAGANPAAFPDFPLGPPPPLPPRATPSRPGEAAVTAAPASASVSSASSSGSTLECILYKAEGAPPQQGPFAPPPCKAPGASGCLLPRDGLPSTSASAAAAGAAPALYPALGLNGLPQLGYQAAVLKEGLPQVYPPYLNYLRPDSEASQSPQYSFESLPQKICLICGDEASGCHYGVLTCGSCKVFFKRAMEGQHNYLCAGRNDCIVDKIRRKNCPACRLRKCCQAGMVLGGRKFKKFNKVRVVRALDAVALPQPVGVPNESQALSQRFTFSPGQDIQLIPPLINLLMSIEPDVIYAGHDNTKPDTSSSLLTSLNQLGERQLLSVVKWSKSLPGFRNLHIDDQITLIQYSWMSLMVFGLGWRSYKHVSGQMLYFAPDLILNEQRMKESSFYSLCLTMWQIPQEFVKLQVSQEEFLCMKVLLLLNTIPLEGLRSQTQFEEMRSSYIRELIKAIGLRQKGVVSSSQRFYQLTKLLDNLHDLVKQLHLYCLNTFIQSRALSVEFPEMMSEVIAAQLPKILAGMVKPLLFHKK

[3] = biological target: T3, Prostaglandin G/H synthase 1 (Rattus norvegicus, UniProt Q63921); assay type: functional
T3 sequence (Q63921 whole entry): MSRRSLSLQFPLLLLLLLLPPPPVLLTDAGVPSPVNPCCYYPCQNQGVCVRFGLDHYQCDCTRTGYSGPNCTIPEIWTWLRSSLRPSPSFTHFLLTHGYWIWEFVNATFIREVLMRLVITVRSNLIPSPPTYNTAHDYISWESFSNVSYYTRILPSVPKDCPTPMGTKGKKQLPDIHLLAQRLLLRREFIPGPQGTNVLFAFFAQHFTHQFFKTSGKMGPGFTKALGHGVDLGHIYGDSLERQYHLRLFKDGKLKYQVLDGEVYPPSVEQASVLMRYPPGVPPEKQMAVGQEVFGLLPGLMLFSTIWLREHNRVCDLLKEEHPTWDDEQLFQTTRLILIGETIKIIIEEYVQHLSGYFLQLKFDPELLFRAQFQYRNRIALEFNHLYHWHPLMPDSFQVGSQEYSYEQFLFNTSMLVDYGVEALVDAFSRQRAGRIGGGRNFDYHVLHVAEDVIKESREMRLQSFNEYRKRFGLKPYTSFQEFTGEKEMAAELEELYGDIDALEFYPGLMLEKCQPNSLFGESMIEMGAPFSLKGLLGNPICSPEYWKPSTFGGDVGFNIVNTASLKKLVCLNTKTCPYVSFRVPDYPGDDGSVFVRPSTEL

[4] = biological target: T4, Cholecystokinin receptor type A (Homo sapiens, UniProt P32238)
T4 sequence (P32238 whole entry): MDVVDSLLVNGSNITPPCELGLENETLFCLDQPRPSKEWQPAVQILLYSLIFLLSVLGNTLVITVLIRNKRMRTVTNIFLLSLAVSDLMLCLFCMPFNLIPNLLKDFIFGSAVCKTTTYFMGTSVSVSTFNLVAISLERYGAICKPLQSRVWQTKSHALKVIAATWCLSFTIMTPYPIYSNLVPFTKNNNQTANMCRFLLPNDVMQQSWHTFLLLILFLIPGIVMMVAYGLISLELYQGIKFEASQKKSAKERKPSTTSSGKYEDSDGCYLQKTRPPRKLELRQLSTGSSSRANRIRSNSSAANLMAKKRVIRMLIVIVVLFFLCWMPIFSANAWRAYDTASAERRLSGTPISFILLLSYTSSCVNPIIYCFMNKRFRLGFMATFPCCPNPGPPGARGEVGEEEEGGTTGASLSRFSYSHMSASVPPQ
Note: assay procedure not described here.

Sequence of Vasopressin V2 receptor (P30518 whole entry): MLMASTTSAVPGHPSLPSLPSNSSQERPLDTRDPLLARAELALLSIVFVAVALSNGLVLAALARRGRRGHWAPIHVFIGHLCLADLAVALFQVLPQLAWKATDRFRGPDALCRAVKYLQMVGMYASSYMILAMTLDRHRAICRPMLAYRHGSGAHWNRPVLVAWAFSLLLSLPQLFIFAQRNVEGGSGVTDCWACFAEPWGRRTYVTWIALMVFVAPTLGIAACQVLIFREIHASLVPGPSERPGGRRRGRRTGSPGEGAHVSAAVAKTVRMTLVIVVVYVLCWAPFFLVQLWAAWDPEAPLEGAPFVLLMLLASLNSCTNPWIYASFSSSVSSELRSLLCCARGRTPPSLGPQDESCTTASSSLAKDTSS
Sequence of Histamine H3 receptor (Q9Y5N1 whole entry): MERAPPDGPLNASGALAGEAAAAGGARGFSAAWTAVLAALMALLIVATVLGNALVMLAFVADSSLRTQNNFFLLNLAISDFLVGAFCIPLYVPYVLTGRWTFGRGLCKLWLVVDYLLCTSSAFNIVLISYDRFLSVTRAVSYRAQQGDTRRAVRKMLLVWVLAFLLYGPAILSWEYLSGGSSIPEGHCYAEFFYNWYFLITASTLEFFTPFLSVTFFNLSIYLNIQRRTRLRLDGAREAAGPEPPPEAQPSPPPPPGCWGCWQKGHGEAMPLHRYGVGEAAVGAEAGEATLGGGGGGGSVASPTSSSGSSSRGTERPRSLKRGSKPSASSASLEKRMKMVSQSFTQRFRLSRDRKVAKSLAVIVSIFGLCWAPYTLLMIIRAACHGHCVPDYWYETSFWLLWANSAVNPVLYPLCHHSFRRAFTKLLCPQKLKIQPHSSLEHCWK
Sequence of Muscarinic acetylcholine receptor M3 (P20309 whole entry): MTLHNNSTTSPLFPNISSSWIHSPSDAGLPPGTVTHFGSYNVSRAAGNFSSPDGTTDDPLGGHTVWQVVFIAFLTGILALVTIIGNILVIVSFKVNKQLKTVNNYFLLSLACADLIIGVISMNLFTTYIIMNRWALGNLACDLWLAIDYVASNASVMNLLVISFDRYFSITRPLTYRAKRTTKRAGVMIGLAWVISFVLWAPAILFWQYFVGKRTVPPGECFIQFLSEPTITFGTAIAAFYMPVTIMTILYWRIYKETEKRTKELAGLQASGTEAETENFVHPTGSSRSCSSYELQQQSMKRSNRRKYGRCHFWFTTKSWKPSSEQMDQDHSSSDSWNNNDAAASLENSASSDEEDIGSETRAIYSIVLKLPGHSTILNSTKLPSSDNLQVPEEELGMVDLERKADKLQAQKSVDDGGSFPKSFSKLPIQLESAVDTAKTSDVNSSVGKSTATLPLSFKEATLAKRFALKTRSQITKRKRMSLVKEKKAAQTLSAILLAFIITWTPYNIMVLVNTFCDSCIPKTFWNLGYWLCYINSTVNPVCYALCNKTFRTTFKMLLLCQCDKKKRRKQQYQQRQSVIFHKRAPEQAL

| Compound | AC50 [1] [µM] | AC50 (Vasopressin V2 receptor) [µM] | AC50 (Histamine H3 receptor) [µM] | AC50 (Adenosine receptor A2a) [µM] | AC50 (D(1A) dopamine receptor) [µM] | AC50 (Adenosine receptor A3) [µM] | AC50 (Melanocortin receptor 4) [µM] | AC50 [2] [µM] | AC50 (Progesterone receptor) [µM] | AC50 [3] [µM] | AC50 [4] [µM] |
| --- | --- | --- | --- | --- | --- | --- | --- | --- | --- | --- | --- |
| COc1ccc(C(Cl)=C(c2ccc(OC)cc2)c2ccc(OC)cc2)cc1 [CHLOROTRIANISENE] | > 30 | > 30 | > 30 | > 30 | > 30 | 28 | > 10 | > 30 | > 30 | 0.259 | > 30 |
| CC(C(=O)O)c1ccc(C(=O)c2ccccc2)s1 (centres undefined) [TIAPROFENIC ACID] | > 30 | > 10 | > 10 | > 10 | > 10 | > 10 | > 10 | > 30 | > 10 | 0.365 | > 10 |
| C=C(c1ccccc1OCc1cccc(Cl)c1)n1ccnc1 [CROCONAZOLE] | > 30 | > 30 | > 10 | > 30 | > 10 | 11.5 | > 30 | > 30 | > 30 | 21.1 | > 30 |
| Nc1nc(Cl)nc2c1ncn2[C@@H]1O[C@H](CO)[C@@H](O)[C@@H]1F [CLOFARABINE] | > 30 | > 30 | > 30 | 22.1 | > 30 | 18.2 | > 30 | > 30 | > 30 | > 30 | > 30 |
